These results are taken from patent US20240058403A1, “YEAST PARTICLES FOR DELIVERY OF WATER-ACTIVATED SELF-EMULSIFYING CANNABINOID FORMULATIONS” (UNIVERSITY OF MASSACHUSETTS, priority 2022, published 2024).

Entries after “also recorded” stand apart in the source; their conditions may differ. Where two headings read alike, the source gives them in different places. A value given as a limit tells only on which side of the number the result lay.

Data set [1] is described as follows: Sustained CBD release from GLPs with sequestering/release agents in simulated saliva. The data set is classed as physicochemical. On the procedure: GLPs were loaded at a weight ratio of CBD:OA:GLP of 2:1:1. […] Aliquots (200 μL) were collected at 1, 3, 6 and 24 h and the samples were centrifuged to separate supernatant (released CBD fraction) and GLP pellet. Released CBD was quantified in the supernatants by HPLC as described before.
The effect of addition of RAs to CBD with OA as SA was tested.
GLPs were loaded with CBD, OA and various RAs. Release assays were performed by the procedure described as before.
[…] Aliquots (200 μL) were collected at 1, 3, 6 and 24 h and the samples were centrifuged to separate supernatant (released CBD fraction) and GLP pellet. Released CBD was quantified in the supernatants by HPLC as described before.

A short description of data set [2]: Fast release of cannabinoids from GLPs embedded in adjuvant, simulated saliva with or without tissue, 1 minute. The format is physicochemical. The conditions noted are these: for cannabinoid release from GLP in 1 minute: cannabinoid loaded alone, no release agent; for THC released in 1 minute: 37° C. On the procedure:
Composition of simulated saliva was 0.72 g/L potassium chloride, 0.22 g/L calcium chloride dihydrate, 0.68 g/L potassium phosphate monobasic, 0.866 g/L sodium phosphate dibasic, 1.5 g/L potassium bicarbonate, 0.06 g/L potassium thiocyanate, and 0.03 g/L citric acid. Samples of dry GLP-THC (4 mg) were resuspended in 1 mL of (A) water, (B) dry glycerin or (C) SEDDS mixture (3.3 mg/mL lecithin in 3% MCT in glycerin). The GLP THC suspensions were diluted with simulated saliva (25% simulated saliva+75% GLP THC in solvent mixture) with and without the addition of a sample of 75-100 mg fat tissue. The samples were incubated for 1 minute at 37° C., and then the fractions were separated to quantify THC in the GLP pellet (THC not released), THC in supernatant (released) and THC in the tissue (released from GLP and absorbed by the tissue). The THC absorbed in the tissue was extracted in 100% methanol and the THC remaining in GLPs was extracted in 80% ethanol-20% water. The THC in all fractions was quantified by HPLC.
GLPs were loaded with a THC:GLP weight ratio of 1:1 and embedded in different solvents. THC release was achieved and quantified as described before (FIG. 9).
GLPs were loaded with a THC and undecanoic acid as a release agent (RA). Loaded GLPs were embedded in adjuvants (water, glycerin or SEDDS mixture). THC release was achieved and quantified as described before (FIG. 9).
GLPs were loaded with a CBD, CBN or CBG and octanoic acid as a RA. Loaded GLPs were embedded in adjuvant water or SEDDS mixture. Cannabinoid release was achieved and quantified as described before for THC (FIG. 9).

The test system of a further data set is H. pylori. The conditions noted are these: cited from earlier work.
Another data set has as its system S. cerevisiae. The note with it: by enhancing potassium leakage and disrupting membrane fluidity; cited from earlier work.
The next data set relates to C. albicans. The note with it: by enhancing potassium leakage and disrupting membrane fluidity; cited from earlier work.
Data set [3] can be described thus: Micelle size of CBD-SA-RA emulsions. The data set is classed as physicochemical.
Data set [4] can be described thus: Stability of CBD-SA-RA o/w emulsions. The conditions noted are these: for Stable CBD o/w emulsion: 1 mg/mL in water, room temperature 30 minutes; for Stable CBD-OA-RA o/w emulsion: 1 mg/mL in water by sonication, room temperature for 30 minutes, precipitate/phase partitioning = unstable. The data set is classed as physicochemical.
A short description of data set [5]: Release of oleamide from GLPs in simulated saliva with or without tissue. The format is physicochemical. On the procedure:
The release of oleamide encapsulated in GLPs using octanoic acid or undecanoic acid as loading solvent or as leave-in solvent was tested. To perform the release assay, the GLP-oleamide suspensions were diluted with simulated saliva (25% simulated saliva+75% GLP in solvent mixture) with and without the addition of a sample of 75-100 mg fat tissue. […], and then the fractions were separated to quantify oleamide in the GLP pellet (unreleased oleamide), oleamide in the supernatant (released) and oleamide in the tissue (released from GLP and absorbed by the tissue). The oleamide absorbed in the tissue was extracted in 100% methanol and the oleamide remaining in GLPs was extracted in 80% ethanol-20% water. The oleamide in all fractions was quantified by HPLC. […] Oleamide was released at a low efficiency (2%) from GLPs with simulated saliva and higher efficiency (34-40%) with simulated saliva and tissue. The addition of UA as the leave-in solvent increased OA release from 34% to 46% in 5 minutes and from 40% to 58% with simulated saliva and tissue

The conditions of data set [6]: hydrophilic-lipophilic balance; cited from earlier work.
Data set [7] in a line: Maximum solubility of surfactants in OA or UDA. The data set is classed as physicochemical.
Data set [8] can be described thus: Physical state of THC-UDA-RA mixture at room temperature. The data set is classed as physicochemical. On the procedure:
Various RAs were tested as described before for their ability to stabilize micelles formed when GLPs encapsulate THC as the payload and UDA as the SA.

Data set [9] can be described thus: Sustained THC release from GLP-THC-UDA with or without RA in simulated saliva + tissue. The conditions noted are these: simulated saliva + tissue at 37° C.; 1 to 24 h. The format is physicochemical. On the procedure: GLPs were loaded at a weight ratio of CBD:OA:GLP of 2:1:1. Dry GLP-CBD (5 mg) were resuspended in 1 mL of simulated saliva, a 75-100 mg piece of simulated tissue was added to the sample and incubated at 37° C. with constant mixing. Aliquots (200 μL) were collected at 1, 3, 6 and 24 h and the samples were centrifuged to separate supernatant (released CBD fraction) and GLP pellet. Released CBD was quantified in the supernatants by HPLC as described before.
The effect of addition of RAs to THC with UDA as SA was tested. Release assays were performed as described as before.

Where [10] appears, read: CBD-SA-RA emulsion, RA TRITON X100 20 % w/w.

As for `C=C(C)[C@@H]1CCC(C)=C[C@H]1c1c(O)cc(CCCCC)cc1O` [CBD, cannabidiol, reference compound], the “time after which CBD release plateaued” value in data set [1] (GLPs CBD:OA:GLP 2:1:1, OA as SA, simulated saliva) was 6 h. For the same compound, the “CBD released after 24 h incubation” value in [1] (GLPs CBD:OA:GLP 2:1:1, OA as SA, simulated saliva (without simulated tissue), 37° C.) was at most 25%. In addition, the “cannabinoid release from GLP in 1 minute” value in data set [2] is recorded as “do not release efficiently”.

On to `CCCCCc1cc(O)c(C/C=C(\C)CCC=C(C)C)c(O)c1` [CBG, cannabigerol], for which the “cannabinoid release from GLP in 1 minute” value in data set [2] was “do not release efficiently”.

As for `CCCCCc1cc(O)c2c(c1)OC(C)(C)c1ccc(C)cc1-2` [CBN, cannabinol], the “cannabinoid release from GLP in 1 minute” value in data set [2] is given as “do not release efficiently”.

For the compound `CC(C)=CCC/C(C)=C/CO` [Geraniol], in the data set with H. pylori, the “concentration that inhibited in vitro growth” value is reported as 2 mg/L. The growth inhibition result in the data set with S. cerevisiae and in the data set with C. albicans was “inhibit the growth” each time.

Regarding `C=CC(C)(O)CCC=C(C)CCC=C(C)C` (stereo not shown) [Nerolidol], the “CBD-SA-RA micelle size (nm)” value turned out to be 661 nm in data set [3] (RA TRITON X100 20 % w/w) and 1260 nm in data set [3] (without RA). Besides, the “total CBD release at 24 hours” value in data set [1] (SA plus TRITON X-100 as RA, simulated saliva + tissue at 37° C.) was 37%. For the same compound, in data set [1] (simulated saliva + tissue at 37° C.), the “course of CBD release with SA and TRITON X-100 as RA” value is “did not lead to CBD release in the first 6 hours”. Further, the “Stable CBD o/w emulsion” value in [4] (CBD-SA emulsion without RA) is listed as “No”; in data set [4] (setting [10]) it was “Yes”.

With `CCCCCCCC(=O)O` [Octanoic acid], in data set [3] (without RA), the “CBD-SA-RA micelle size (nm)” value worked out at 379 nm. Besides, the entries for the “Stable CBD o/w emulsion” value in data set [4] (CBD-SA emulsion without RA) and in data set [4] (setting [10]) were “No” and “Yes”, respectively.

`CCCCCCCC/C=C\CCCCCCCC(N)=O` [Oleamide, oleamide]: the “% oleamide Released” value in data set [5] (simulated saliva (no tissue), 1 hour) is recorded as 2%; in data set [5] (simulated saliva + tissue, 5 minutes) it was 34%; in data set [5] (simulated saliva + tissue, 1 hour), 40%. Further, the oleamide release efficiency in data set [5] (simulated saliva and tissue, 5 minutes to 1 hour) is 34-40%.

`CCCCCc1cc(O)c2c(c1)OC(C)(C)[C@@H]1CCC(C)=C[C@@H]21` [THC, tetrahydrocannabinol]: the “THC released in 1 minute” value in [2] (GLPs (THC:GLP 1:1) embedded in SEDDS mixture (lecithin/MCT/glycerin), simulated saliva with tissue) is on record as “up to 53%”; in data set [2] (GLPs (THC:GLP 1:1) embedded in SEDDS mixture (lecithin/MCT/glycerin), simulated saliva without tissue), “Up to 30%”; in [2] (GLPs (THC:GLP 1:1) embedded in glycerin, simulated saliva containing tissue), “Up to 30%”.

On to TRITON ™ X-100, for which the HLB in [6] is recorded as 13.5. For the same compound, the “fold increase of CBD release compared to GLP-CBD-OA control sample” value in [1] (GLP-CBD-OA-RA, simulated saliva with tissue) is given as 1.7-2.0 fold. Also, the “effect of RA on sustained CBD release from GLP-CBD-OA” value in data set [1] (simulated saliva with tissue, 1 to 6 hours) is listed as “improvement of sustained release from 1 to 6 hours”. Also, in [7], the “Maximum solubility in OA” value was found to be 20% w/w. Besides, the “Maximum solubility in UDA” value in [7] is reported as 37.5% w/w. The “Physical State of THC-UDA-RA mixture at room temperature” value was “mixture of oil and solid UDA” in data set [8]; “Solid” in [8] (listed as TRITONTM X-100). The “Stable CBD-OA-RA o/w emulsion” value in [4] is given as “Yes”; in data set [4] (listed as TRITON™ X-100) it was “form stable micelles”. Also, the “effect of RA on sustained THC release from GLP-THC-UDA” value in [9] is “did not improve sustained release from 1 to 6 h; also recorded: yielded high THC release at the 24 hour time point”.

In the case of TWEEN 20, the HLB in [6] is given as 16.7. Besides, in data set [7], the “Maximum solubility in OA” value is listed as 20% w/w. Also, the “Stable CBD-OA-RA o/w emulsion” value in data set [4] is on record as “No”.

For the compound TWEEN 80, in data set [6], the HLB was 15. Also, the “Maximum solubility in OA” value in data set [7] was 25% w/w. For the same compound, in [4], the “Stable CBD-OA-RA o/w emulsion” value is given as “No”.
